In article PMC10038264, “A new family of glutamate-gated chloride channels in parasitic sea louse Caligus rogercresseyi: A subunit refractory to activation by ivermectin is dominant in heteromeric assemblies” (PLOS Pathogens, 2023):

How the values were obtained:
CrGluCl-A = CrGluCl-A (Caligus rogercresseyi, UniProt A0A1W6LZ70); test: Two-electrode voltage-clamp of Xenopus oocytes expressing CrGluCl-A; format: cell-based; conditions: CrGluCl-A alone
Procedure: (§1) Adult female Xenopus laevis frogs were anaesthetized by immersion in a1g/L solution tricaine (Ethyl 3-aminobenzoate methanesulfonate, Sigma) buffered to pH 7 with NaHCO3. Surgery was performed 30–40 min later, once the frog was completely anaesthetized judging by loss of reflexes. Ovarian lobes were removed through 1 cm abdominal incision and then kept at 16°C in Barth’s modified solution containing (in mM): 88 NaCl, 1 KCl, 0.4 CaCl2, 0.3 Ca (NO3)2, 0.8 MgSO4, 2.4 NaHCO3, 5 Hepes, 2.5 sodium pyruvate, 100 μg/ml gentamicin sulfate, 100 U/ml penicillin, 100 μg/ml streptomycin, 250 μg/ml amphotericin B, 0.22μm filtered and adjusted to pH 7.5 with Tris-Base. Osmolarity was brought to 220 mOsm with saccharose. The oocytes were manually defolliculated on the same day of extraction and the following day 20 ng cRNA in nuclease-free water was injected into stage V-VI oocytes using a FemtoJet microinjector (Eppendorf). Finally, the injected oocytes were stored in 96 well plates containing Barth’s modified solution and kept at 16°C until experiment day.
Current measurements at controlled membrane potentials (voltage-clamp experiments) were performed using two intracellular microelectrodes in defolliculated Xenopus oocytes previously microinjected with 20 ng of cRNA. Voltage-clamp recording was performed at room temperature using a TURBO TEC-10CX amplifier (npi electronic GmbH, Tamm, Germany) and PClamp 10.6 software (Axon Instruments, USA), 1 to 4 days after oocyte injection. The oocytes were recorded in a chamber (Model RC-1Z, Warner Instrumenst, USA) under continuous superfusion. […] Reference was an Ag-AgCl electrode connected to the bath via a 3 M KCl in 3% agar bridge. Currents were recorded continuously during the experiments without interruptions for solution changes. […] The signal filtered at 1 kHz was acquired with a Digidata 1440A Analog-to-Digital Converter and analyzed with Axon pClamp 10.6 software. […]

CrGluCl-B M340T mutant = test: Voltage-clamp of oocytes expressing CrGluCl-B M340T mutant; format: cell-based, Caligus rogercresseyi; conditions: 1 μM ivermectin
Excerpt: (§2) To identify putative GluCl subunits, we queried the NCBI Transcriptome Shotgun Assembly Sequence (TSA) Database for “glutamate-gated chloride channel Caligus”. The obtained sequences were translated and BLASTed (tBLASTn) against the C. rogercresseyi genome (WGS, BioProject ID 280098, NCBI) and against transcripts of L. salmonis database (https://licebase.org/). Primers for each of the putative new subunit found were designed to span the full length of the open reading frame (ORF) for each of them (B-E) (S1 Table, and arrows in Fig 1). Complete cDNAs were generated by RT-PCR from adult C. rogercresseyi samples from which putative full-length peptide sequences of CrGluCl-B, CrGluCl-C, CrGluCl-D and CrGluCl-E were obtained. Each PCR product was cloned in pGEM-T easy vector and sequenced. […]
(§3) Current measurements at controlled membrane potentials (voltage-clamp experiments) were performed using two intracellular microelectrodes in defolliculated Xenopus oocytes previously microinjected with 20 ng of cRNA. […] The oocytes were recorded in a chamber (Model RC-1Z, Warner Instrumenst, USA) under continuous superfusion. […] Currents were recorded continuously during the experiments without interruptions for solution changes. […] The signal filtered at 1 kHz was acquired with a Digidata 1440A Analog-to-Digital Converter and analyzed with Axon pClamp 10.6 software. […]

CrGluCl-B Q327T mutant = test: Voltage-clamp of oocytes expressing CrGluCl-B Q327T mutant; format: cell-based, Caligus rogercresseyi; conditions: 1 μM ivermectin, ANOVA P<0.05
Excerpt: as §2, §3

[1] = tested on: CrGluCl-B Q279E-Y361F mutant; test: Voltage-clamp of oocytes expressing CrGluCl-B Q279E-Y361F double mutant; format: cell-based, Caligus rogercresseyi; conditions: 1 μM ivermectin, one-sample t-test
Excerpt: as §2, §3

CrGluCl-B Q279E mutant = test: Voltage-clamp of oocytes expressing CrGluCl-B Q279E mutant; format: cell-based, Caligus rogercresseyi; conditions: 1 μM ivermectin, one-sample t-test
Excerpt: as §2, §3

[2] = tested on: coexpressed CrGluCl-D:CrGluCl-A; test: Voltage-clamp of oocytes coinjected with CrGluCl-D and CrGluCl-A; format: cell-based, Caligus rogercresseyi; conditions: D:A ratio 1:1
Procedure: as §1, with “The oocytes were manually defolliculated on the same day of extraction and the following day 20 ng cRNA in nuclease-free water was injected into stage V-VI oocytes using a FemtoJet microinjector (Eppendorf). Finally, the injected oocytes were stored in 96 well plates containing Barth’s modified solution and kept at 16°C until experiment day.” left out
as §3

CrGluCl-B Y361F mutant = test: Voltage-clamp of oocytes expressing CrGluCl-B Y361F mutant; format: cell-based, Caligus rogercresseyi; conditions: 1 μM ivermectin, one-sample t-test
Excerpt: as §2, §3

Sequence of CrGluCl-A (A0A1W6LZ70 entry or part of it): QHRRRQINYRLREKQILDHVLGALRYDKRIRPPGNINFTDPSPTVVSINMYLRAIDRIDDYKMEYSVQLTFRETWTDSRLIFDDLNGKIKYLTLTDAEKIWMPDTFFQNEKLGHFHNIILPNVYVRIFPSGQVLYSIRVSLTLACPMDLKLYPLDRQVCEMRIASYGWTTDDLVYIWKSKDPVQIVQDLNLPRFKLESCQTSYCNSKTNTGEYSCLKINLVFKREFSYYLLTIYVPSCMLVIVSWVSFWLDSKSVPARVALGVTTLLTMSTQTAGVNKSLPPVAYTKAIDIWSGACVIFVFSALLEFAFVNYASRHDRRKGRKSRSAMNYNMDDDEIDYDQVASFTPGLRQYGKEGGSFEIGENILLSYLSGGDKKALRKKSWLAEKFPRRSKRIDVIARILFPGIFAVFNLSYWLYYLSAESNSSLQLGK

In the case of N[C@@H](CCC(=O)O)C(=O)O [glutamate, L-glutamate], the “nH (glutamate)” value (CrGluCl-A; 60 mV) is reported as 1.65 ± 0.63 and the EC50 (CrGluCl-A; EC50 Glutamate, currents at 60 mV, Hill fit) is reported as 7.2 ± 2.7 µM.

For ivermectin, the “effect of ivermectin on current” value (CrGluCl-B M340T mutant) was “no effect”, the “effect of ivermectin on current compared with WT” value (CrGluCl-B Q327T mutant) was “significantly greater” and the “effect of ivermectin on current” value [1] was “small but significant effects”. For the same molecule, the “effect of ivermectin on current” value (CrGluCl-B Q279E mutant) was “small but significant effects”, the “Iver response to activation” value [2] was “Sensitive” and the “effect of ivermectin on current” value (CrGluCl-B Y361F mutant) was “small but significant effects”.
